Reference: paper PMC11983102, “Conjugation to a transferrin receptor 1-binding Bicycle peptide enhances ASO and siRNA potency in skeletal and cardiac muscles” (Nucleic Acids Research, 2025)
Numbered stars: 1 amine (or outer) side, 2 acyl side, 3 side chain; on linkers, the order of the positions; unused ones are H or OH. Bridge positions count the residues as written; N and C are the ends. Peptide text beside a SMILES is read from it. TATB = O=C(C[*:1])N1CN(C(=O)C[*:2])CN(C(=O)C[*:3])C1

Experiments:
human TfR1 = target: T1, human TfR1 (Homo sapiens, UniProt P02786); test: SPR binding of Bicycle peptides and conjugates to human TfR1; conditions: SPR (Biacore), human TfR1 captured on SA chip, 5-point single cycle kinetics, PBS-P+ 1% DMSO pH 7.4; geometric mean; unconjugated Bicycle peptides
T1 construct: received from Bicycle Therapeutics as His6-tagged TfR1 (a.a. 89-760) (ACROBiosystems, CD1-H5243 and TfR-C524a); His6; purchased ACROBiosystems CD1-H5243
Experimental: Biacore experiments were performed to determine ka (M^-1s^-1), kd (s^-1), KD (nM) values of various peptides binding to TfR1. […] SPR binding analysis was performed on Biacore T200 and Biacore 8K+ (Cytiva). Human TfR1 and randomly biotinylated cynomolgus monkey TfR1 were captured on Series S Sensor Chip SA (BR100531, Cytiva) at levels of approximately 1000 RU. Using an appropriate top concentration, Bicycle peptides were screened in a 5-point titration curve in single cycle kinetics format at 30 ml/minute. The running buffer was PBS-P^+, 1% DMSO at pH 7.4. The data was solvent-corrected for DMSO bulk effects. In addition, all data was double corrected against the reference flow cell and matched buffer blanks. Data processing and kinetic fitting were performed using Biacore T200 Evaluation Software or Biacore Insight Evaluation. The data was fitted using the 1:1 binding model or steady-state affinity model where appropriate. The geometric mean (geomean) KD (nM) for binders was calculated by transforming unique KD values by log10, arithmetic-mean-averaging the transformed values, and subsequently anti-log-transforming the averaged value.

Mouse plasma stability = assay type: in vitro ADME
Experimental: An alanine scan was performed to identify core residues involved in binding to the protein and solvent-facing residues which could be used to tune molecular properties, followed by substitutions with non-natural amino acids to identify suitable replacements at each position. In addition, peptides were synthesized to investigate the removal of the N- and C-terminal alanines, capping the N-terminal with an acetyl group, and to examine the effects of combinations with N- and C-terminal extensions. Affinity was measured using either SPR or fluorescence polarization (FP) assays, and plasma stability in mouse was determined for selected examples. Series of analogues with the azidolysine (K(N3)) or azidopropanoic acid (AzPro) were prepared on the C- and N-terminal of the Bicycle molecules, respectively. These were used to conjugate to an ASO or siRNA for further profiling.

T1 sequence (P02786 89-760): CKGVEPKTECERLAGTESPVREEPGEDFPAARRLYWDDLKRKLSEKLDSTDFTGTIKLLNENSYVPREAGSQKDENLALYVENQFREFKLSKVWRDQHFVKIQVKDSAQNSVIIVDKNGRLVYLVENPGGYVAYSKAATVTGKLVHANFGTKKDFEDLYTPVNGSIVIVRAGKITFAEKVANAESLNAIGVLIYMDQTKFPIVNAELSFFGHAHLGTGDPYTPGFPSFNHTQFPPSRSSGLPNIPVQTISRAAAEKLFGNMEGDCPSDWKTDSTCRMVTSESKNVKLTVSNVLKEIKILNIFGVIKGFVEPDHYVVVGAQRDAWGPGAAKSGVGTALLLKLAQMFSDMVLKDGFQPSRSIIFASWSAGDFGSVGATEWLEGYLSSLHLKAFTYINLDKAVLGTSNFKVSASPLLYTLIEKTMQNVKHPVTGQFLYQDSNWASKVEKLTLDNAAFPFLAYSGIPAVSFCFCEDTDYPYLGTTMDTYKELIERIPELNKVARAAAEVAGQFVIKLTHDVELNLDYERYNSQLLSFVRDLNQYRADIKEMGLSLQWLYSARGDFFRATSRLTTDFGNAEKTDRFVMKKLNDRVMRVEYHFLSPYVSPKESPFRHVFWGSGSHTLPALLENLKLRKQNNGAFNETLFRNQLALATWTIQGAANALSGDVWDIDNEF

`CC[C@H](C)[C@@H]1NC(=O)[C@@H]2CSCC(=O)N3CN(CN(C3)C(=O)CSC[C@@H](C(=O)N[C@@H](C)C(N)=O)NC(=O)[C@H](Cc3ccc(O)cc3)NC(=O)[C@H](CO)NC1=O)C(=O)CSC[C@H](NC(=O)[C@H](C)N)C(=O)N[C@@H](CO)C(=O)N1CCC[C@H]1C(=O)N[C@@H](CC(=O)O)C(=O)N[C@@H](C)C(=O)N[C@@H](Cc1c[nH]cn1)C(=O)N[C@@H](CC(C)C)C(=O)NCC(=O)N2` [BCY15468] showed a Kd (human TfR1) of 0.143 µM.

Compound `CC[C@H](C)[C@@H]1NC(=O)[C@@H]2CSCC(=O)N3CN(CN(C3)C(=O)CSC[C@@H](C(=O)N[C@@H](C)C(N)=O)NC(=O)[C@H](Cc3ccc4ccccc4c3)NC(=O)[C@H](CO)NC1=O)C(=O)CSC[C@H](NC(=O)[C@H](C)N)C(=O)N[C@@H](CO)C(=O)N1CCC[C@H]1C(=O)N[C@@H](CC(=O)O)C(=O)N[C@@H](C)C(=O)N[C@@H](Cc1c[nH]cn1)C(=O)N[C@@H](CC(C)C)C(=O)NCC(=O)N2` [compound 16031] has a Kd (human TfR1) of 0.068 µM.

`CC[C@H](C)[C@@H]1NC(=O)[C@@H]2CSCC(=O)N3CN(CN(C3)C(=O)CSC[C@@H](C(=O)N[C@@H](C)C(N)=O)NC(=O)[C@H](Cc3cccc4ccccc34)NC(=O)[C@H](CO)NC1=O)C(=O)CSC[C@H](NC(=O)[C@H](C)N)C(=O)N[C@@H](CO)C(=O)N1CCC[C@H]1C(=O)N[C@@H](CC(=O)O)C(=O)N[C@@H](C)C(=O)N[C@@H](Cc1c[nH]cn1)C(=O)N[C@@H](CC(C)C)C(=O)NCC(=O)N2` [compound 16029] gave a Kd (human TfR1) of 0.06 µM.

Compound `CC[C@H](C)[C@@H]1NC(=O)[C@@H]2CSCC(=O)N3CN(CN(C3)C(=O)CSC[C@H](NC(C)=O)C(=O)N[C@@H](CO)C(=O)N3CCC[C@H]3C(=O)N[C@@H](CC(=O)O)C(=O)N[C@@H](C)C(=O)N[C@@H](Cc3c[nH]cn3)C(=O)N[C@@H](CC(C)C)C(=O)NCC(=O)N2)C(=O)CSC[C@@H](C(N)=O)NC(=O)[C@H](Cc2ccc(O)cc2)NC(=O)[C@H](CO)NC1=O` [BCY15891] (Ac-CSPDAHLGCISYC-NH2; linker 1-9-13 via TATB) has a half-life (Mouse plasma stability) of 22.7 h.

Work on `CC[C@H](C)[C@@H]1NC(=O)[C@@H]2CSCC(=O)N3CN(CN(C3)C(=O)CSC[C@@H](C(=O)N[C@@H](C)C(N)=O)NC(=O)[C@H](Cc3ccc(O)cc3)NC(=O)[C@H](CO)NC1=O)C(=O)CSC[C@H](NC(=O)[C@H](C)N)C(=O)N[C@@H](CO)C(=O)N1C[C@H](O)C[C@H]1C(=O)N[C@@H](CC(=O)O)C(=O)N[C@@H](C)C(=O)N[C@@H](Cc1c[nH]cn1)C(=O)N[C@@H](CC(C)C)C(=O)NCC(=O)N2` [compound 16047] yielded a Kd (human TfR1) of 0.049 µM.
